TGI and GI50 data for 13 molecules are collected here from PubChem BioAssay (NCI).

Common to all, as to assay: NCI-60 cell line screen, 48 h
For assay [1], the system named is HOP-92 NSCLC.
The test system of assay [2] is SK-MEL-2 melanoma.
Assay [3] has as its system ACHN renal.
In assay [4] the test system is PC-3 prostate.
Assay [5] relates to NCI-H23 lung.
Assay [6] concerns UACC-257 melanoma.
For assay [7], the system named is SNB-75 CNS.

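Dose response: 5 concentrations. Exposure: 48 h. Format: 96-well plates. Endpoint: linear interpolation; highest concentration if not reached. GI50: concentration for 50% inhibition of growth. Definition used: TGI = concentration required for complete inhibition of growth.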

For the molecule `c1ccc2c(c1)N=c1ccccc1=P21c2ccccc2Nc2ccccc21`, the TGI in assay [1] was 2.32 µM; in assay [2] it was 0.923 µM; in assay [3], 10.9 µM; in assay [4], 10.1 µM; in assay [5], 5.34 µM; in assay [6], 2.73 µM. The molecule further showed a TGI in assay [7] of 4.67 µM.
As to `COc1ccc(/C(C#N)=C/c2nc3c(N4CCOCC4)nc(Cl)nc3n2C)cc1OC`, the GI50 in assay [1] is 0.246 µM; in assay [2] it was below 0.0228 µM; in assay [3], below 0.01 µM; in assay [4] it was below 0.01 µM; in assay [5], below 0.01 µM; in assay [6] it was 1.29 µM. Also, the GI50 in assay [7] was below 0.01 µM. For the same molecule, the TGI in assay [1] was determined as 2.94 µM; in assay [2], 1.27 µM; in assay [3], 1.25 µM; in assay [4] it was 1.52 µM; in assay [5], 2.74 µM; in assay [6] it was 2.87 µM. The TGI in assay [7] was below 0.01 µM.
`Nc1nc(Cl)cc2c1ncn2C1OC(CO)C(O)C1O` (centres undefined): the GI50 in assay [1], in assay [2], in assay [3], in assay [4], in assay [5] and in assay [6] was above 100 µM each time. Further, the GI50 in assay [7] is above 100 µM. Further, the TGI in assay [1], in assay [2], in assay [3], in assay [4], in assay [5] and in assay [6] was above 100 µM in each case. Besides, in assay [7], the TGI was above 100 µM.
Regarding `CC(CC(C)[C@H]1CCC2[C@H]3C(CC[C@@]21C)[C@@]1(C)CCC(O)C[C@H]1C[C@@H]3O)C(=O)O` (some centres undefined), the TGI in assay [1], in assay [2], in assay [3], in assay [4], in assay [5] and in assay [6] was above 100 µM each time. The molecule further had a TGI in assay [7] above 100 µM.
On to `O=C(O)CSc1ccn(Cc2ccccc2)c1`, for which the TGI in assay [1], in assay [2], in assay [3], in assay [4], in assay [5] and in assay [6] was above 100 µM in each case. This molecule also gave a TGI in assay [7] above 100 µM.
With `N#CC1=C(N)Oc2c(sc3c(F)cccc23)C1c1ccc(Cl)cc1` (centres undefined), the GI50 in assay [1] is 3.71 µM; in assay [2] it was 3.49 µM; in assay [3], 4.62 µM; in assay [4], 2.72 µM; in assay [5], 3.37 µM; in assay [6] it was 11.7 µM. Moreover, the GI50 in assay [7] is 2.27 µM. In addition, the TGI in assay [1] was 19.2 µM; in assay [2], 15.5 µM; in assay [3], 19.3 µM; in assay [4], 12.9 µM; in assay [5] it was 16.2 µM; in assay [6] it was above 100 µM. In assay [7], this molecule returned a TGI of 10 µM.
With `COc1ccc(C2CC(c3cccc(Nc4ccnc5cc(Cl)ccc45)c3)=NN2c2ccccc2)cc1` (centres undefined), the GI50 is 3.93 µM in assay [1]; 2.07 µM in assay [2]; 3.5 µM in assay [3]; 0.453 µM in assay [4]; 8.78 µM in assay [5]; 1.36 µM in assay [6]. For the same molecule, the GI50 in assay [7] was 3.34 µM. Besides, the TGI in assay [1] is 47.6 µM; in assay [2], 10.4 µM; in assay [3] it was 33.2 µM; in assay [4], 95.3 µM; in assay [5] it was 59.7 µM; in assay [6], 31.4 µM. In addition, the TGI in assay [7] is 49.1 µM.
Regarding `Cc1ccc(NC(=O)C(=O)C2C(=O)C3=C(CC2(C)C)NC2C=CC=CC2S3)c(C)c1` (centres undefined), the TGI in assay [1], in assay [2], in assay [3], in assay [4], in assay [5] and in assay [6] was above 100 µM throughout. The molecule further yielded a TGI in assay [7] above 100 µM.
As for `COc1cc(C2C3=C(COC3=O)N(CCO)c3cc4c(cc32)OCCO4)cc(OC)c1O` (centres undefined), the GI50 is above 50 µM in assay [1]; 5.94 µM in assay [3]; 2.17 µM in assay [4]; 2.46 µM in assay [5]; above 10.2 µM in assay [6]; 0.713 µM in assay [7]. The TGI in assay [1] was above 50 µM; in assay [2], above 13.4 µM; in assay [3], above 50 µM; in assay [4], above 50 µM; in assay [5], above 50 µM; in assay [6], above 50 µM. Besides, the TGI in assay [7] was above 50 µM.
`COc1ccc2c(c1)Cc1cc(N=[N+]([O-])c3ccc4c(c3)Cc3cc(OC)ccc3-4)ccc1-2`: the TGI was above 100 µM in assay [1]; above 100 µM in assay [2]; above 100 µM in assay [3]; above 100 µM in assay [4]; above 100 µM in assay [5]; 52.7 µM in assay [6]. Further, the TGI in assay [7] is above 100 µM.
Regarding `COC(=O)c1ccc2c(c1)[n+](=O)c(C(C)=O)c(C(F)(F)F)n2[O-]`, the GI50 in assay [1] was 1.48 µM; in assay [2], 2.23 µM; in assay [3], 1.76 µM; in assay [4], 1.64 µM; in assay [5], 1.81 µM; in assay [6] it was 1.82 µM. Also, in assay [7], the GI50 is 1.4 µM. Moreover, the TGI in assay [1] is 3.14 µM; in assay [2], 4.8 µM; in assay [3], 3.24 µM; in assay [4], 3.63 µM; in assay [5], 3.38 µM; in assay [6], 3.31 µM. For the same molecule, in assay [7], the TGI came out at 2.71 µM.
Consider `CCCCCCCC(=O)SCC/C=C/[C@@H]1CC(=O)NCc2cccc(n2)CN(Cc2ccc(Cl)cc2)CC(=O)N[C@@H](C(C)C)C(=O)O1`, for which the GI50 in assay [1] was 8.76 µM; in assay [2] it was 13.3 µM; in assay [3], 6.44 µM; in assay [4], 15.9 µM; in assay [5], 13.7 µM; in assay [6], 8.99 µM. The GI50 in assay [7] is 5.74 µM. Moreover, the TGI in assay [1] was 41.8 µM; in assay [2], above 100 µM; in assay [3], 49.8 µM; in assay [4], above 100 µM; in assay [5], above 100 µM; in assay [6], 70.4 µM. Further, the TGI in assay [7] is above 100 µM.
Regarding `S=c1sc2ccccc2n1CN1CCN(Cc2ccccc2)CC1`, the TGI in assay [1], in assay [2], in assay [3], in assay [4], in assay [5] and in assay [6] was above 100 µM throughout. The TGI in assay [7] was above 100 µM.
